# Target: T1, PI3K alpha (Homo sapiens, UniProt P42336)
# T1 construct: purchased Millipore Upstate
# Test: P110 Alpha TR-FRET Assay (PI3K alpha kinase assay, HTRF Transcreener ADP Assay)
# Assay type: biochemical
# Conditions: PI3K (WT)
# In short: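 HTRF Transcreener ADP read-out of ADP formed by PI3K (50 ng enzyme) in 50 mM HEPES pH 7.5, 5 mM MgCl2, 1 mM DTT, 30 μM Na3VO4. Compound preincubated with enzyme 20 min; reaction started with 10 μM ATP and 5 μM PIP2, run 20 min, then ADP-d2/anti-ADP cryptate detection for 1 h.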
# T1 sequence (P42336 whole entry): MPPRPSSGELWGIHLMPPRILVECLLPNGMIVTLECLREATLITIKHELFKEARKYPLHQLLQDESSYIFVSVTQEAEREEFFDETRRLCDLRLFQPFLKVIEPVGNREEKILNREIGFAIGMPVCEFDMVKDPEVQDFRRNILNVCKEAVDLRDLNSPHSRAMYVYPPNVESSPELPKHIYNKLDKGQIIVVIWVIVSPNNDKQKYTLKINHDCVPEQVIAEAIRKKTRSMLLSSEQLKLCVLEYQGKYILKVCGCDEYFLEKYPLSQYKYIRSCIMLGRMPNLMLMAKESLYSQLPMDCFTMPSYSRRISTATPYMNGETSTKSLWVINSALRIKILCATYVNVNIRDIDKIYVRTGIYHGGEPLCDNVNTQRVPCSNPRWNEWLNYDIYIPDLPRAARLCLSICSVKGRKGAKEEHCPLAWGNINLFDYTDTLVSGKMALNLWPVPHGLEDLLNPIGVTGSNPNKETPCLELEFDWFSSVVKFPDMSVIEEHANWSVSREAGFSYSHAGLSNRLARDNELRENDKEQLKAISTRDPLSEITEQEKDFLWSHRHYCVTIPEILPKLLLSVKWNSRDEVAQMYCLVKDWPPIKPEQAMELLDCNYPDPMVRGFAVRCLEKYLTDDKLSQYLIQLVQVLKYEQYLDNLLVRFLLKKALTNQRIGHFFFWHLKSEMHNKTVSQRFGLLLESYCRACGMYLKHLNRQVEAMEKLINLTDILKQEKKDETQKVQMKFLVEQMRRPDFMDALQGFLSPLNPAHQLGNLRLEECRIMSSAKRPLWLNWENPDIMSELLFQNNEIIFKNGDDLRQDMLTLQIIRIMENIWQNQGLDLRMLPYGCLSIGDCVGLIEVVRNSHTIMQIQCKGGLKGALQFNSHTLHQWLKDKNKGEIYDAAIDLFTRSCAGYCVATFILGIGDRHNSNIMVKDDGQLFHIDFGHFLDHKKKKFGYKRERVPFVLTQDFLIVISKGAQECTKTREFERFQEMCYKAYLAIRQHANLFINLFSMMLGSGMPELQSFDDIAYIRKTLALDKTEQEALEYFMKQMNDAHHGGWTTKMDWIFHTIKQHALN
# T1 sequence (P27986 whole entry partner): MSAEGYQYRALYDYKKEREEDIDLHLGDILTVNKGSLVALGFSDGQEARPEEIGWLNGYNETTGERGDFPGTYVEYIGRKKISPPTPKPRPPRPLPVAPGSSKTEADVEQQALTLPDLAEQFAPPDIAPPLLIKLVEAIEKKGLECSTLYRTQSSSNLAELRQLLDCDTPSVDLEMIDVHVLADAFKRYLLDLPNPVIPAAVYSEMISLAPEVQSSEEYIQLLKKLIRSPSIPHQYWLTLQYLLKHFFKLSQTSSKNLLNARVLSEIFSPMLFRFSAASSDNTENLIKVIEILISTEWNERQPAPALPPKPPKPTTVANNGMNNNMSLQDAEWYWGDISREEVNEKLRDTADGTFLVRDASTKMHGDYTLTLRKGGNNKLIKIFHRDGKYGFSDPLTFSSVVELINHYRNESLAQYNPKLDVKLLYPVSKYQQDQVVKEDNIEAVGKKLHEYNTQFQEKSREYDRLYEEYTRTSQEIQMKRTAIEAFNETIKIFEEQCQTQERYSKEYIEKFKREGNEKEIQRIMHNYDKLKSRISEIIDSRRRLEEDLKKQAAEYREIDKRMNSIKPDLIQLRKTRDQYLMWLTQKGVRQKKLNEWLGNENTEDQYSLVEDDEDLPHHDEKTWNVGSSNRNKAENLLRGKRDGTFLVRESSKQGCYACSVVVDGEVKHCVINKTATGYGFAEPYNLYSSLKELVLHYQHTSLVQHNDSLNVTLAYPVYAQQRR
row,SMILES,IC50
1,"CNC(=O)CNc1nc(-c2cccc(O)c2)nc(N2CCOCC2)n1 [Compound 1168, 2-((4-(3-hydroxyphenyl)-6-morpholino-1,3,5-triazin-2-yl)amino)-N-methylacetamide]",< 5 µM
2,"O=C(O)CNc1nc(-c2cccc([N+](=O)[O-])c2)nc(N2CCOCC2)n1 [Compound 1169, 2-((4-morpholino-6-(3-nitrophenyl)-1,3,5-triazin-2-yl)amino)acetic acid]",> 5 µM
3,"O=C(c1cccc(Nc2nc(-c3cccc4[nH]ncc34)nc(N3CCOCC3)n2)c1)N1CCNCC1 [Compound 1171, (3-((4-(1H-indazol-4-yl)-6-morpholino-1,3,5-triazin-2-yl)amino)phenyl)(piperazin-1-yl)methanone]",< 5 µM
4,"CN1CCN(C(=O)c2cccc(Nc3nc(-c4cccc5[nH]ncc45)nc(N4CCOCC4)n3)c2)CC1 [Compound 1172, (3-((4-(1H-indazol-4-yl)-6-morpholino-1,3,5-triazin-2-yl)amino)phenyl)(4-methylpiperazin-1-yl)methanone]",< 5 µM
5,"O=C(c1cccc(Nc2nc(-c3cccc4[nH]ncc34)nc(N3CCOCC3)n2)c1)N1CCOCC1 [Compound 1173, (3-((4-(1H-indazol-4-yl)-6-morpholino-1,3,5-triazin-2-yl)amino)phenyl)(morpholino)methanone]",< 5 µM
6,"CCOc1ccc(NC(=O)C2CCN(c3nc(-c4cccc5[nH]ncc45)nc(N4CCOCC4)n3)C2)cc1 (stereo not drawn) [Compound 1174, N-(4-23-ethoxyphenyl)-1-12-[4-1-(1H-indazol-4-yl)-6-5-(morpholin-4-yl)-1,3,5-triazin-2-yl]pyrrolidine-3-carboxamide]",< 5 µM
7,"CC(C)C(Nc1nc(-c2cccc(O)c2)nc(N2CCOCC2)n1)C(=O)O (stereo not drawn) [Compound 1175, 2-((4-(3-hydroxyphenyl)-6-morpholino-1,3,5-triazin-2-yl)amino)-3-methylbutanoic acid]",< 5 µM
8,"O=C(O)CNc1nc(-c2ccc(O)nc2)nc(N2CCOCC2)n1 [Compound 1176, 2-((4-(6-hydroxypyridin-3-yl)-6-morpholino-1,3,5-triazin-2-yl)amino)acetic acid]",> 5 µM
9,"CNC(=O)c1ccc(C)c(Nc2nc(-c3cccc4[nH]ncc34)nc(N3CCOCC3)n2)c1 [Compound 1177, 3-((4-(1H-indazol-4-yl)-6-morpholino-1,3,5-triazin-2-yl)amino)-N,4-dimethylbenzamide]",< 5 µM
10,"Cc1ccc(C(=O)N(C)C)cc1Nc1nc(-c2cccc3[nH]ncc23)nc(N2CCOCC2)n1 [Compound 1178, 3-((4-(1H-indazol-4-yl)-6-morpholino-1,3,5-triazin-2-yl)amino)-N,N,4-trimethylbenzamide]",< 5 µM
11,"O=C(O)CNc1nc(-c2ccc(F)nc2)nc(N2CCOCC2)n1 [Compound 1179, 2-((4-(6-fluoropyridin-3-yl)-6-morpholino-1,3,5-triazin-2-yl)amino)acetic acid]",> 5 µM
12,"CN(C)C(=O)N1CCN(Cc2nc(-c3cccc4[nH]ncc34)nc(N3CCOCC3)n2)CC1 [Compound 1180, 4-((4-(1H-1-indazol-4-yl)-6-morpholino-1,3,5-triazin-2-yl)methyl)-N,N-dimethylpiperazine-1-carboxamide]",< 5 µM
13,"NC(=O)CNc1nc(-c2cccc(O)c2)nc(N2CCOCC2)n1 [Compound 1181, 2-((4-(3-hydroxyphenyl)-6-morpholino-1,3,5-triazin-2-yl)amino)acetamide]",< 5 µM
14,"NC(=O)c1cccn1-c1nc(-c2cccc3[nH]ncc23)nc(N2CCOCC2)n1 [Compound 1182, 1-8-[4-1-(1H-indazol-4-yl)-6-5-(morpholin-4-yl)-1,3,5-triazin-2-yl]-1H-pyrrole-2-carboxamide]",< 5 µM
15,"COc1cccc(-c2nc(NCC(=O)O)nc(N3CCOCC3)n2)c1 [Compound 1183, 2-((4-(3-methoxyphenyl)-6-morpholino-1,3,5-triazin-2-yl)amino)acetic acid]",> 5 µM
16,"O=C(O)CNc1nc(-c2cccc(NO)c2)nc(N2CCOCC2)n1 [Compound 1184, 2-((4-(3-(hydroxyamino)phenyl)-6-morpholino-1,3,5-triazin-2-yl)amino)acetic acid]",> 5 µM
17,"CN(C)C(=O)CNc1nc(-c2ccc(N)cc2)nc(N2CCOCC2)n1 [Compound 1185, 2-((4-(4-aminophenyl)-6-morpholino-1,3,5-triazin-2-yl)amino)-N,N-dimethylacetamide]",> 5 µM
18,"Cc1c(Nc2nc(-c3cccc4[nH]ncc34)nc(N3CCOCC3)n2)cccc1C(N)=O [Compound 1186, 3-((4-(1H-indazol-4-yl)-6-morpholino-1,3,5-triazin-2-yl)amino)-2-methylbenzamide]",< 5 µM
19,"CC(Nc1nc(-c2cccc(O)c2)nc(N2CCOCC2)n1)C(=O)O (stereo not drawn) [Compound 1187, 2-((4-(3-hydroxyphenyl)-6-morpholino-1,3,5-triazin-2-yl)amino)propanoic acid]",< 5 µM
20,"CC(C)(Nc1nc(-c2cccc(O)c2)nc(N2CCOCC2)n1)C(=O)O [Compound 1188, 2-((4-(3-hydroxyphenyl)-6-morpholino-1,3,5-triazin-2-yl)amino)-2-methylpropanoic acid]",< 5 µM

row,SMILES,IC50
1,"CN(C)C(=O)c1cccc(Nc2nc(-c3cccc4[nH]ncc34)nc(N3CCOCC3)n2)c1 [Compound 1190, 3-((4-(1H-indazol-4-yl)-6-morpholino-1,3,5-triazin-2-yl)amino)-N,N-dimethylbenzamide]",< 5 µM
2,"CS(=O)(=O)N1CCN(C(=O)CCNc2nc(-c3cccc4[nH]ncc34)nc(N3CCOCC3)n2)CC1 [Compound 1191, 3-((4-(1H-indazol-4-yl)-6-morpholino-1,3,5-triazin-2-yl)amino)-1-(4-(methylsulfonyl)piperazin-1-yl)propan-1-one]",< 5 µM
3,"CN(CC(=O)O)c1nc(-c2cccc(O)c2)nc(N2CCOCC2)n1 [Compound 1192, 2-((4-(3-hydroxyphenyl)-6-morpholino-1,3,5-triazin-2-yl)(methyl)amino)acetic acid]",< 5 µM
4,"NC(=O)Cc1ccccc1Nc1nc(-c2cccc3[nH]ncc23)nc(N2CCOCC2)n1 [Compound 1194, 2-(2-((4-(1H-indazol-4-yl)-6-morpholino-1,3,5-triazin-2-yl)amino)phenyl)acetamide]",< 5 µM
5,"NC(=O)Cc1cccc(Nc2nc(-c3cccc4[nH]ncc34)nc(N3CCOCC3)n2)c1 [Compound 1195, 2-(3-((4-(1H-indazol-4-yl)-6-morpholino-1,3,5-triazin-2-yl)amino)phenyl)acetamide]",< 5 µM
6,"O=C1NCC2CN(c3nc(-c4cccc5[nH]ncc45)nc(N4CCOCC4)n3)CCC12 (stereo not drawn) [Compound 1196, 5-8-[4-1-(1H-indazol-4-yl)-6-5-(morpholin-4-yl)-1,3,5-triazin-2-yl]-octahydro-1H-pyrrolo[3,4-c]pyridin-1-one]",< 5 µM
7,"COC(=O)CNc1nc(-c2cccc(N)c2)nc(N2CCOCC2)n1 [Compound 1197, methyl 2-((4-(3-aminophenyl)-6-morpholino-1,3,5-triazin-2-yl)amino)acetate]",< 5 µM
8,"NC(=O)c1ccccc1Nc1nc(-c2cccc3[nH]ncc23)nc(N2CCOCC2)n1 [Compound 1198, 2-((4-(1H-indazol-4-yl)-6-morpholino-1,3,5-triazin-2-yl)amino)benzamide]",> 5 µM
9,"Nc1cccc(-c2nc(NCC(=O)O)nc(N3CCOCC3)n2)c1 [Compound 1199, 2-((4-(3-aminophenyl)-6-morpholino-1,3,5-triazin-2-yl)amino)acetic acid]",> 5 µM
10,"CN(c1cccc(C(N)=O)c1)c1nc(-c2cccc3[nH]ncc23)nc(N2CCOCC2)n1 [Compound 1200, 3-((4-(1H-indazol-4-yl)-6-morpholino-1,3,5-triazin-2-yl)(methyl)amino)benzamide]",< 5 µM
11,"NC(=O)c1cccc(Nc2nc(-c3cccc4[nH]ncc34)nc(N3CCOCC3)n2)c1 [Compound 1201, 3-((4-(1H-indazol-4-yl)-6-morpholino-1,3,5-triazin-2-yl)amino)benzamide]",< 5 µM
12,"O=C(O)c1cccc(Nc2nc(-c3cccc4[nH]ncc34)nc(N3CCOCC3)n2)c1 [Compound 1202, 3-((4-(1H-indazol-4-yl)-6-morpholino-1,3,5-triazin-2-yl)amino)benzoic acid]",< 5 µM
13,"O=C(O)CNc1nc(-c2ccccc2)nc(N2CCOCC2)n1 [Compound 1203, 2-((4-morpholino-6-phenyl-1,3,5-triazin-2-yl)amino)acetic acid]",> 5 µM
14,"CN(C)C(=O)c1ccc(Nc2nc(-c3cccc4[nH]ncc34)nc(N3CCOCC3)n2)cc1 [Compound 1204, 4-((4-(1H-indazol-4-yl)-6-morpholino-1,3,5-triazin-2-yl)amino)-N,N-dimethylbenzamide]",< 5 µM
15,"c1cc(Nc2nc(-c3cccc4[nH]ncc34)nc(N3CCOCC3)n2)c2cn[nH]c2c1 [Compound 1205, N-(4-(1H-indazol-4-yl)-6-morpholino-1,3,5-triazin-2-yl)-1H-indazol-4-amine]",< 5 µM
16,"O=C1CCN(c2nc(-c3cccc4[nH]ncc34)nc(N3CCOCC3)n2)CCN1 [Compound 1206, 1-21-[4-1-(1H-indazol-4-yl)-6-5-(morpholin-4-yl)-1,3,5-triazin-2-yl]-1,4-diazepan-5-one]",< 5 µM
17,"COC(=O)C1CCN(c2nc(-c3cccc4[nH]ncc34)nc(N3CCOCC3)n2)C1 (stereo not drawn) [Compound 1207, methyl 1-12-[4-1-(1H-indazol-4-yl)-6-5-(morpholin-4-yl)-1,3,5-triazin-2-yl]pyrrolidine-3-carboxylate]",< 5 µM
18,"ON=C1CCN(c2nc(-c3cccc4[nH]ncc34)nc(N3CCOCC3)n2)CC1 [Compound 1208, N-{1-8-[4-1-(1H-indazol-4-yl)-6-5-(morpholin-4-yl)-1,3,5-triazin-2-yl]piperidin-4-ylidene}hydroxylamine]",< 5 µM
19,"CN(C)C(=O)C(Cc1ccccc1)Nc1nc(-c2cccc3[nH]ncc23)nc(N2CCOCC2)n1 (stereo not drawn) [Compound 1209, 2-((4-(1H-indazol-4-yl)-6-morpholino-1,3,5-triazin-2-yl)amino)-N,N-dimethyl-3-phenylpropanamide]",< 5 µM

# From patent publication US9481670B2, “Triazine compounds” (Sphaera Pharma PTE. Ltd., priority 2011, dated 2016)
